Series [1] relates to BV-2. Description: Anti-inflammatory activity in mouse BV-2 cells assessed as reduction in LPS-induced NO production at 10 uM pretreated with LPS for 24 hrs followed by compound addition and measured after 24 hrs by Griess reagent based analysis. The class given is functional, cell-based. For orientation: The Griess reaction detects nitrite, a stable product of nitric oxide.

Series [2] concerns BV-2. Description: Cytotoxicity against mouse BV-2 cells assessed as cell viability up to 10 uM by MTT assay. The class given is toxicity, cell-based. The settings on record: bv-2, 10 µM. A general note: Formazan colour is commonly taken as a measure of viable cells.
Series [3] has as its system BV-2. Description: Cytotoxicity against mouse BV-2 cells assessed as cell viability at 5 uM by MTT assay. The format is toxicity, cell-based. The settings on record: bv-2, 5 µM.
Series [4] deals with BV-2. Description: Anti-inflammatory activity in mouse BV-2 cells assessed as reduction in LPS-induced NO production pretreated with LPS for 24 hrs followed by compound addition and measured after 24 hrs by Griess reagent based analysis. The format is functional, cell-based. The settings on record: dose 0.5-5 µM.
The test system of series [5] is BV-2. Description: Anti-inflammatory activity in mouse BV-2 cells assessed as reduction in LPS-induced NO production at 5 uM pretreated with LPS for 24 hrs followed by compound addition and measured after 24 hrs by Griess reagent based analysis. The format is functional, cell-based.
For series [6], the system named is BV-2. In words: Cytotoxicity against mouse BV-2 cells assessed as cell viability at 10 uM by MTT assay. The class given is toxicity, cell-based. Conditions: bv-2, 10 µM.

Active and inactive are the calls of the source. The calls are words filed in the database; no cut-off is given here.

For the compound `COc1cc(-c2c[nH]c3ncc(-c4cnn(C5CCNCC5)c4)cc23)c(F)cc1C`, the outcome in the series on BV-2 [1] was Active. In the series on BV-2 [2], the Activity result was “Non-toxic”.
For `Fc1cccc(-c2c[nH]c3ncc(-c4cnn(C5CCNCC5)c4)cc23)c1`, the Activity result was “Non-toxic” with BV-2 [3], “Dose-dependent-effect” with BV-2 [4], “Active; Compound Showed Most Pronounced Effect Compared With Other Tested Compounds” with BV-2 [5] and “Toxic” in the series with BV-2 [6].
Take `CN1CCC(n2cc(-c3cnc4[nH]cc(-c5cc(Cl)cc(Cl)c5)c4c3)cn2)CC1`: the result in the series with BV-2 [1] was Active. Also, the Activity result with BV-2 [2] is “Non-toxic”.
`COc1cc(-c2c[nH]c3ncc(-c4cnn(C5CCN(C)CC5)c4)cc23)c(F)cc1C`: in the series on BV-2 [1], the outcome was Active. Moreover, in the series with BV-2 [2], the Activity entry is given as “Non-toxic”.
Take `COc1cccc(-c2c[nH]c3ncc(-c4cnn(C5CCN(C)CC5)c4)cc23)c1`: the Activity entry is “Non-toxic” in the series on BV-2 [3], “Dose-dependent-effect” in the series with BV-2 [4] and “Toxic” in the series with BV-2 [6]. The outcome in the series on BV-2 [5] was Active.
As for `COc1cccc(-c2c[nH]c3ncc(-c4cnn(C5CCNCC5)c4)cc23)c1`, the Activity result in the series with BV-2 [3] is “Non-toxic”; with BV-2 [4], “Dose-dependent-effect”; in the series with BV-2 [6], “Toxic”. For the same compound, the result in the series with BV-2 [5] was Active.
In the case of `Clc1cc(Cl)cc(-c2c[nH]c3ncc(-c4cnn(C5CCNCC5)c4)cc23)c1`, in the series with BV-2 [1], the result was Active. In the series on BV-2 [2], the Activity result is reported as “Non-toxic”.
Take `CN1CCC(n2cc(-c3cnc4[nH]cc(-c5cccc(F)c5)c4c3)cn2)CC1`: the Activity result in the series on BV-2 [3] is “Non-toxic”; with BV-2 [4], “Dose-dependent-effect”; with BV-2 [5], “Active; Compound Showed Most Pronounced Effect Compared With Other Tested Compounds”; in the series with BV-2 [6], “Toxic”.
